# Where two headings read alike, the source gives them in different places. Where no end group is shown, it is not given here.
# Columns and labels:
# THP-1 cells [1] = assay: Total RNA levels (ng/μL) as a marker for cell viability; type: cell-based, human
# Method: (§1) Control and treated cells are transferred to separate sterile 1.5-mL tubes and centrifuged for 5 minutes at 300 g. The cell pellets are resuspended in appropriate buffer to lyse the cells. RNAase-free 70% ethanol is then added followed by mixing by pipetting. The lysates are transferred to an RNeasy™ Mini spin column and centrifuged 30 seconds at 13000 RPM. After several washes with appropriate buffers and centrifugation steps, the eluates are collected in sterile 1.5-mL tubes on ice, and the RNA quantity in each tube is then quantified with a spectrophotometer. For DNase treatment, 2 μg of RNA is diluted in 15 μL of RNase-free water. 1.75 μL of 10× DNase buffer and 0.75 μL of DNase is then added, followed by incubation at 37° C. for 15 minutes. For reverse transcriptase treatment, 0.88 μL of EDTA ([…]) is added, followed by incubation at 75° C. for 5 minutes. In a PCR tube, 0.5 μg of DNase-treated RNA is mixed with 4 μL of iScript™ Reverse transcription Supermix (5×) and […] of nuclease-free water. The mix is incubated in a PCR machine with the following program: 5 min at 25° C., 30 min at 42° C. and 5 min at 85° C. Newly synthesized cDNA is transferred in sterile 1.5-mL tubes and diluted in 2 μL of nuclease-free water. 18 μL per well of a qPCR machine (CFX-96™) mix is then added in a PCR plate for analysis.
# Briefly, THP-1 cells were plated at 30 000 cells/well one day before transduction. HOXB4-WT recombinant protein (0.3, 0.9, or 1.5 μM; Example 14.1) was co-incubated with different concentrations of His-CM18-PTD4 ([…], 0.8 or 1 μM) and then exposed to THP-1 cells for 2.5 hours in the presence of serum. The cells were subjected to real time-PCR analysis as described in Example 14.2 to measure the mRNA levels of a target gene as a marker for HOXB4 activity, which was then normalized to the target gene mRNA levels detected in the negative control cells (no treatment), to obtain a “Fold over control” value. Total RNA levels (ng/μL) were also measured as a marker for cell viability.
# [2] = Cell toxicity / % cell viability by flow cytometry (cells in total events v. untreated); type: cell-based, Human; settings: human, HeLa cells, HeLa; for viability at 1 min, 20 µM / viability at 10 s, 50 µM / viability at 1 min, 10 µM / viability at 2 min, 10 µM / viability at 5 min, 10 µM: Protocol B; for viability at 1 min, 20 µM: 1 minute; for viability at 10 s, 50 µM: FIG. 29A, shuttle 50 μM, 10 seconds; for viability at 1 min, 10 µM / viability at 2 min, 10 µM / viability at 5 min, 10 µM: shuttle 10 μM; for viability at 1 min, 10 µM: incubation 1 min; for viability at 2 min, 10 µM: incubation 2 min; for viability at 5 min, 10 µM: incubation 5 min
# HeLa cells [3] = assay: GFP-NLS transduction efficiency, flow cytometry (Pos cells %, relative fluorescence intensity FL1-A); type: cell-based, Human; settings: Protocol B, 1 minute; for Mean % cells with GFP signal (±St. Dev.; n = 3), FIG. 29I: shuttle 20 μM, GFP-NLS 5 μM
# HeLa cells [4] = assay: Cell toxicity / % cell viability by flow cytometry (cells in total events v. untreated); type: cell-based, Human; settings: for effect of the variation of the shuttle on cell viability (in words): GFP-NLS 5 μM with 20 μM shuttle variant
# THP-1 cells [5] = assay: HOXB4-WT transduction, real-time PCR of target gene mRNA (Fold over control); type: cell-based, human
# Method: as §1
# Briefly, THP-1 cells were plated at 30 000 cells/well one day before transduction. […] The cells were subjected to real time-PCR analysis as described in Example 14.2 to measure the mRNA levels of a target gene as a marker for HOXB4 activity, which was then normalized to the target gene mRNA levels detected in the negative control cells (no treatment), to obtain a “Fold over control” value. Total RNA levels (ng/μL) were also measured as a marker for cell viability.
# Briefly, THP-1 cells were plated at 30 000 cells/well one day before the first time course experiment. […] The cells were subjected to real time-PCR analysis as described in Example 14.2 to measure mRNA levels of a target gene as a marker for HOXB4 activity, which was then normalized to the target gene mRNA levels detected in the negative control cells (no treatment), to obtain a “Fold over control” value. Total RNA levels (ng/μL) were also measured as a marker for cell viability.
# Briefly, THP-1 cells were plated at 30 000 cells/well one day before the first time course experiment. […] The cells were subjected to real time-PCR analysis as described in Example 14.2 to measure mRNA levels of a target gene as a marker for HOXB4 activity, which was then normalized to target gene mRNA levels detected in the negative control cells (no treatment), to obtain a “Fold over control” value. Total RNA levels (ng/μL) were also measured as a marker for cell viability. […]
# [6] = Cell toxicity / % cell viability by flow cytometry (cells in total events v. untreated); type: cell-based, human; settings: human, THP-1 cells, THP-1, Protocol C, shuttle 1 μM, GFP-NLS 5 μM, read-out: Cell viability (%) (±St. Dev.; n = 3)
# [7] = Cell viability (%) (±St. Dev.; n = 3), FIG. 29I, shuttle 20 μM, GFP-NLS 5 μM, read-out: Cell viability (%) (±St. Dev.; n = 3), FIG. 29I
# [8] = Cell viability (%) (±St. Dev.; n = 3), GFP-NLS 5 μM, read-out: Cell viability (%) (±St. Dev.; n = 3)
# [9] = HeLa, Protocol B, shuttle 50 μM, GFP-NLS 5 μM, 10 seconds
# [10] = GFP-NLS 5 μM, read-out: Cell viability (%) (±St. Dev.; n = 3), FIG. 29G
# [11] = GFP-NLS 5 μM, read-out: Cell viability (%) (±St. Dev.; n = 3)
# [12] = GFP-NLS 5 μM, read-out: Cell viability (%) (±St. Dev.; n = 3), FIG. 29B
substance,measurement,setting,value
HHHHHHKWKLFKKIGAVLKVLTTGYARAAARQARA [His-CM18-PTD4 alone],Total RNA in ng/μL (mean ± St. Dev),"THP-1 cells [1]; Table 14.1, shuttle 1 μM, HOXB4-WT 0 μM, 2.5 hours with serum",252 ± 10.7 ng/µL
same,Total RNA in ng/μL (mean ± St. Dev),"THP-1 cells [1]; Table 14.2, shuttle 0.8 μM, HOXB4-WT 0 μM, exposure time 2.5 h, serum",184 ± 6.0 ng/µL
same,Total RNA in ng/μL (mean ± St. Dev),"THP-1 cells [1]; Table 14.3, shuttle 0 μM, HOXB4-WT 0.3 μM, exposure time 2.5 h, serum",260 ± 7.1 ng/µL
same,Total RNA in ng/μL (mean ± St. Dev),"THP-1 cells [1]; Table 14.4, shuttle 0 μM, HOXB4-WT 1.5 μM, exposure time 2.5 h, serum",303.9 ± 7.6 ng/µL
HHHHHHKWKLFKKIGAVLKVLTTGYARAAARQARACCCCCC (cysteines drawn unpaired) [His-CM18-PTD4-6Cys],"viability at 1 min, 20 µM",[2]; [7],62 ± 5.76%
same,"Mean % cells with GFP signal (±St. Dev.; n = 3), FIG. 29I",HeLa cells [3],41.3 ± 4.28%
HHHHHHKWKLFKKIGAVLKVLTTGYGRKKRRQRRR [His-CM18-TAT],"viability at 1 h, 1 µM","[2]; Cell viability (%) (±St. Dev.; n = 3), FIG. 21B, GFP-NLS 5 μM, shuttle 1 μM, 1 hour, read-out: Cell viability (%) (±St. Dev.; n = 3), FIG. 21B",95 ± 3.55%
same,"viability at 1 h, 3 µM","[2]; Cell viability (%) (±St. Dev.; n = 3), FIG. 21B, GFP-NLS 5 μM, shuttle 3 μM, 1 hour, read-out: Cell viability (%) (±St. Dev.; n = 3), FIG. 21B",91 ± 5.18%
same,"viability at 1 h, 5 µM","[2]; Cell viability (%) (±St. Dev.; n = 3), FIG. 21B, GFP-NLS 5 μM, shuttle 5 μM, 1 hour, read-out: Cell viability (%) (±St. Dev.; n = 3), FIG. 21B",86 ± 4.59%
same,"viability at 10 s, 50 µM",[2]; [8],35.2 ± 5.7%
same,"Cell viability (%) (±St. Dev.; n = 3), FIG. 29E",HeLa cells [4]; [9],35.2 ± 5.7%
HOXB4-WT alone,Fold over control (mean ± St. Dev),"THP-1 cells [5]; Table 14.1, shuttle 0 μM, HOXB4-WT 1.5 μM, 2.5 hours with serum",4.3 ± 0.1
same,Fold over control (mean ± St. Dev),"THP-1 cells [5]; Table 14.2, shuttle 0 μM, HOXB4-WT 1.5 μM, exposure time 2.5 h, serum",3.4 ± 0.3
same,Fold over control (mean ± St. Dev),"THP-1 cells [5]; Table 14.3, shuttle 0.8 μM, HOXB4-WT 0 μM, exposure time 2.5 h, serum",1 ± 0.14
same,Fold over control (mean ± St. Dev),"THP-1 cells [5]; Table 14.4, shuttle 0.8 μM, HOXB4-WT 0 μM, exposure time 2.5 h, serum",1 ± 0.11
KWKLFKKIGAVLKVLTTGGGSGGGSGGGSGYARAAARQARA [CM18-L3-PTD4],effect of the variation of the shuttle on cell viability (in words),"HeLa cells [4]; HeLa, 1 minute, Protocol B",increased cell viability
same,effect of the variation of the shuttle on transduction efficiency (in words),HeLa cells [3]; GFP-NLS 5 μM with 20 μM shuttle variant,did not result in a dramatic loss of transduction efficiency
same,"Mean % cells with GFP signal (±St. Dev.; n = 3), FIG. 29I",HeLa cells [3],39.0 ± 2.7%
KWKLFKKIGAVLKVLTTGGGSGGGSYARAAARQARA [CM18-L2-PTD4],"viability at 1 min, 20 µM",[2]; [7],64 ± 1.3%
same,effect of the variation of the shuttle on cell viability (in words),"HeLa cells [4]; HeLa, 1 minute, Protocol B",increased cell viability
KWKLFKKIGAVLKVLTTGGGSYARAAARQARA [CM18-L1-PTD4],"viability at 1 min, 20 µM",[2]; [7],50.1 ± 3.8%
same,effect of the variation of the shuttle on cell viability (in words),"HeLa cells [4]; HeLa, 1 minute, Protocol B",increased cell viability
KWKLFKKIGAVLKVLTTGYARAAARQARA [CM18-PTD4],"viability at 1 min, 20 µM","[2]; cell viability, GFP-NLS 5 μM with 20 μM shuttle, Table 10.3e, read-out: cell viability",33.9%
same,"Cell viability (%) (±St. Dev.; n = 3), FIG. 29I","HeLa cells [4]; HeLa, Protocol B, shuttle 20 μM, GFP-NLS 5 μM, 1 minute",33.9 ± 3.7%
MHHHHHHKWKLFKKIGAVLKVLTTGYARAAARQARAC [Met-His-CM18-PTD4-Cys],"viability at 1 min, 20 µM",[2]; [7],54.9 ± 3.45%
same,"Mean % cells with GFP signal (±St. Dev.; n = 3), FIG. 29I",HeLa cells [3],45.6 ± 3.88%
YARAAARQARAWEAKLAKALAKALAKHLAKALAKALKACEA [PTD4-KALA],"viability at 1 min, 10 µM",[2]; [10],96.2 ± 3%
same,"viability at 2 min, 10 µM",[2]; [10],75.3 ± 3.8%
same,"viability at 5 min, 10 µM",[2]; [10],82.4 ± 4.7%
same,"viability at 10 s, 50 µM",[2]; [11],91.4 ± 3.67%
same,"Cell viability (%) (±St. Dev.; n = 3), FIG. 29F",HeLa cells [4],91.4 ± 3.67%
YGRKKRRQRRRCKWKLFKKIGAVLKVLTTG [TAT-CM18],"viability at 10 s, 50 µM",[2]; [8],23.5 ± 1.1%
same,"Cell viability (%) (±St. Dev.; n = 3), FIG. 29F",HeLa cells [4]; [9],23.5 ± 1.1%
YGRKKRRQRRRCWEAKLAKALAKALAKHLAKALAKALKACEA (cysteines drawn unpaired) [TAT-KALA],"viability at 1 min, 10 µM",[2]; [12],93.5 ± 2.7%
same,"viability at 2 min, 10 µM",[2]; [12],92.1 ± 3.1%
same,"viability at 5 min, 10 µM",[2]; [12],86 ± 4.4%
same,"viability at 10 s, 50 µM",[2]; [11],95.6 ± 4.3%
same,"Cell viability (%) (±St. Dev.; n = 3), FIG. 29F",HeLa cells [4]; [9],95.6 ± 4.3%
same,"viability at 15 s, 1 µM",[6]; incubation time 15 sec,84.6 ± 2.7%
same,"viability at 0.5 min, 1 µM",[6]; incubation time 30 sec,70.3 ± 3.2%
same,"viability at 1 min, 1 µM",[6]; incubation time 60 sec,82.7 ± 1.4%
same,"viability at 2 min, 1 µM",[6]; incubation time 120 sec,46.3 ± 4.9%

# — patent US12060387B2, “Polypeptide-based shuttle agents for improving the transduction efficiency of polypeptide cargos to the cytosol of target eukaryotic cells, uses thereof, methods and kits relating to same” (priority 2015, dated 2024)
